Test: refractive index (Na D-line) (dimensionless); xn = mol fraction of the nth substance listed
Conditions: 101 kPa, Liquid, Standard Abbe refractometry

CCCCCCCCCCCCCCCC [hexadecane] + CCCCO
refractive index
Conditions | x2 = 0 | x2 = 0.1 | x2 = 0.2 | x2 = 0.3 | x2 = 0.4 | x2 = 0.5 | x2 = 0.6 | x2 = 0.7 | x2 = 0.8 | x2 = 0.9
293.15 K | 1.434 | 1.4329 | 1.4315 | 1.4295 | 1.4274 | 1.425 | 1.422 | 1.4184 | 1.4139 | 1.4078
298.15 K | 1.4318 | 1.4307 | 1.4293 | 1.4274 | 1.4252 | 1.4228 | 1.4199 | 1.4162 | 1.4118 | 1.4057
303.15 K | 1.4296 | 1.4286 | 1.4271 | 1.4252 | 1.4231 | 1.4206 | 1.4177 | 1.4141 | 1.4096 | 1.4036
308.15 K | 1.4275 | 1.4264 | 1.425 | 1.423 | 1.4209 | 1.4185 | 1.4155 | 1.4119 | 1.4075 | 1.4015
313.15 K | 1.4254 | 1.4242 | 1.4228 | 1.4208 | 1.4187 | 1.4163 | 1.4134 | 1.4097 | 1.4053 | 1.3994
318.15 K | 1.4233 | 1.4221 | 1.4206 | 1.4186 | 1.4165 | 1.4141 | 1.4111 | 1.4075 | 1.4031 | 1.3973
323.15 K | 1.4211 | 1.4199 | 1.4184 | 1.4164 | 1.4143 | 1.4119 | 1.4089 | 1.4053 | 1.4009 | 1.3951
328.15 K | 1.419 | 1.4177 | 1.4162 | 1.4142 | 1.4121 | 1.4097 | 1.4067 | 1.4031 | 1.3987 | 1.3929
333.15 K | 1.4169 | 1.4156 | 1.4141 | 1.4121 | 1.4099 | 1.4074 | 1.4045 | 1.4009 | 1.3965 | 1.3907
338.15 K | 1.4149 | 1.4135 | 1.4119 | 1.4099 | 1.4077 | 1.4052 | 1.4022 | 1.3987 | 1.3942 | 1.3885
343.15 K | 1.4129 | 1.4114 | 1.4097 | 1.4076 | 1.4056 | 1.403 | 1.4 | 1.3964 | 1.392 | 1.3862

CCCCCCCCCCCCCCCC [hexadecane] + CCCO
refractive index
Conditions | x2 = 0 | x2 = 0.1 | x2 = 0.2 | x2 = 0.3 | x2 = 0.4 | x2 = 0.5 | x2 = 0.6 | x2 = 0.7 | x2 = 0.8 | x2 = 0.9
293.15 K | 1.434 | 1.4327 | 1.431 | 1.4288 | 1.4266 | 1.4233 | 1.4196 | 1.4148 | 1.4084 | 1.3993
298.15 K | 1.4318 | 1.4305 | 1.4288 | 1.4266 | 1.4244 | 1.4211 | 1.4174 | 1.4127 | 1.4062 | 1.3972
303.15 K | 1.4296 | 1.4284 | 1.4266 | 1.4244 | 1.4222 | 1.4189 | 1.4152 | 1.4105 | 1.4041 | 1.3951
308.15 K | 1.4275 | 1.4262 | 1.4245 | 1.4223 | 1.42 | 1.4167 | 1.4131 | 1.4083 | 1.4019 | 1.3929
313.15 K | 1.4254 | 1.4241 | 1.4223 | 1.4201 | 1.4179 | 1.4145 | 1.4109 | 1.4061 | 1.3998 | 1.3908
318.15 K | 1.4233 | 1.4219 | 1.4201 | 1.4179 | 1.4156 | 1.4123 | 1.4087 | 1.4038 | 1.3976 | 1.3885
323.15 K | 1.4211 | 1.4197 | 1.4179 | 1.4157 | 1.4134 | 1.41 | 1.4064 | 1.4016 | 1.3952 | 1.3863
328.15 K | 1.419 | 1.4176 | 1.4157 | 1.4135 | 1.4112 | 1.4077 | 1.4041 | 1.3993 | 1.393 | 1.3841
333.15 K | 1.4169 | 1.4154 | 1.4135 | 1.4113 | 1.4089 | 1.4054 | 1.4018 | 1.397 | 1.3907 | 1.3818
338.15 K | 1.4149 | 1.4133 | 1.4113 | 1.4091 | 1.4067 | 1.4032 | 1.3995 | 1.3947 | 1.3884 | 1.3795
343.15 K | 1.4129 | 1.4111 | 1.4092 | 1.4069 | 1.4044 | 1.401 | 1.3972 | 1.3924 | 1.386 | 1.3771

Reference: the NIST ThermoML archive (doi:10.1016/j.fluid.2018.05.028)
